In experiment [1] the test system is Candida albicans. Briefly: Antifungal activity against fluconazole-resistant Candida albicans 24D assessed as inhibition of fungal growth measured for 24 hrs by CLSI based microdilution analysis. The class given is functional. (In broth dilution the organism is exposed to a series of concentrations in liquid medium.)
The subject of experiment [2] is Candida albicans. Briefly: Antifungal activity against fluconazole-resistant Candida albicans 901 assessed as inhibition of fungal growth measured for 24 hrs by CLSI based microdilution analysis. It is filed as functional.
Experiment [3] relates to Candida albicans. Briefly: Antifungal activity against Candida albicans SC5314 assessed as reduction in fungal growth incubated for 24 hrs by CLSI based microdilution analysis. The class given is functional.
Experiment [4] relates to Aspergillus fumigatus. Briefly: Antifungal activity against Aspergillus fumigatus CGMCC3 7795 assessed as reduction in fungal growth incubated for 48 hrs by CLSI based microdilution analysis. The class given is functional.
In experiment [5] the test system is Candida tropicalis. Briefly: Antifungal activity against Candida tropicalis ATCC 750 assessed as reduction in fungal growth incubated for 24 hrs by CLSI based microdilution analysis. It is filed as functional.
The subject of experiment [6] is Candida albicans. Briefly: Antifungal activity against fluconazole-resistant Candida albicans 102 assessed as inhibition of fungal growth measured for 24 hrs by CLSI based microdilution analysis. It is filed as functional.
The test system of experiment [7] is Candida albicans. Briefly: Antifungal activity against fluconazole-resistant Candida albicans 15 assessed as inhibition of fungal growth measured for 24 hrs by CLSI based microdilution analysis. It is filed as functional.
In experiment [8] the test system is Meyerozyma guilliermondii. Briefly: Antifungal activity against Meyerozyma guilliermondii ATCC 6260 assessed as reduction in fungal growth incubated for 24 hrs by CLSI based microdilution analysis. The class given is functional.
In experiment [9] the test system is Candida parapsilosis. Briefly: Antifungal activity against Candida parapsilosis ATCC 22019 assessed as reduction in fungal growth incubated for 24 hrs by CLSI based microdilution analysis. The class given is functional. Particulars: Lodderomyces parapsilosis.
Experiment [10] has as its system Cryptococcus neoformans. Briefly: Antifungal activity against Cryptococcus neoformans CGMCC3 1563 assessed as reduction in fungal growth incubated for 72 hrs by CLSI based microdilution analysis. The class given is functional.
Experiment [11] has as its system Nakaseomyces glabratus. Briefly: Antifungal activity against Candida glabrata ATCC 15126 assessed as reduction in fungal growth incubated for 24 hrs by CLSI based microdilution analysis. The class given is functional.
Experiment [12] relates to Candida albicans. Briefly: Antifungal activity against fluconazole-resistant Candida albicans 112869 assessed as inhibition of fungal growth measured for 24 hrs by CLSI based microdilution analysis. The class given is functional.
Experiment [13] relates to Candida albicans. Briefly: Antifungal activity against fluconazole-resistant Candida albicans 13 assessed as inhibition of fungal growth measured for 24 hrs by CLSI based microdilution analysis. The class given is functional.
For experiment [14], the system named is Candida albicans. Briefly: In-vivo antifungal activity against Candida albicans […] infected in skin infected ICR mouse model assessed as wound healing at 1 mg/kg, ip pretreated for 24 hrs followed by infection and measured for 5 days. The class given is functional, organism-based. Particulars: time 144.0 hrs.
The subject of experiment [15] is Candida albicans. Briefly: In-vivo antifungal activity against Candida albicans […] infected in skin infected ICR mouse model assessed as reduction in fungal burden in skin at 1 mg/kg, ip pretreated for 24 hrs followed by infection and measured for 5 days by Periodic acid-Schiff staining based analysis. It is filed as functional, organism-based. Particulars: time 144.0 hrs.

For orientation: MIC80 means an inhibitory concentration at the 80% level, which refers to growth in some studies and to a panel of isolates in others.

The structures appear in SMILES notation. Converted amounts (≈) assume the structure as drawn. The source made the active and inactive calls. No cut-off for these calls is given here.

For the molecule `OC(CN1CCN(CCn2ccc3cc(Cl)c(Cl)cc32)CC1)(Cn1cncn1)c1ccc(F)cc1F` (configuration not stated), the MIC80 in [1] came out at 0.062 µg/mL (≈ 0.116 µM); in experiment [2] it was 2.5 µg/mL (≈ 4.67 µM); in [3], 0.031 µg/mL (≈ 0.0579 µM); in experiment [4] it was 5 µg/mL (≈ 9.34 µM); in experiment [5], 0.312 µg/mL (≈ 0.583 µM); in experiment [6], 0.062 µg/mL (≈ 0.116 µM). Further, the MIC80 is 0.625 µg/mL (≈ 1.17 µM) in experiment [7]; 0.125 µg/mL (≈ 0.233 µM) in [8]; 0.125 µg/mL (≈ 0.233 µM) in experiment [9]; 0.062 µg/mL (≈ 0.116 µM) in experiment [10]; 0.312 µg/mL (≈ 0.583 µM) in [11]; 0.25 µg/mL (≈ 0.467 µM) in experiment [12]. Moreover, in [13], the MIC80 worked out at 0.062 µg/mL (≈ 0.116 µM).
Turning to `CCC(C)n1ncn(-c2ccc(N3CCN(c4ccc(OCC5COC(Cn6cncn6)(c6ccc(Cl)cc6Cl)O5)cc4)CC3)cc2)c1=O` (configuration not stated) [ITRACONAZOLE], the MIC80 in experiment [1] was over 100 µg/mL; in experiment [2] it was over 100 µg/mL; in experiment [3], 0.062 µg/mL (≈ 0.0879 µM); in experiment [4], 0.312 µg/mL (≈ 0.442 µM); in experiment [5] it was 0.625 µg/mL (≈ 0.886 µM); in [6] it was over 100 µg/mL. Further, the MIC80 in experiment [7] is over 100 µg/mL; in experiment [8], 0.25 µg/mL (≈ 0.354 µM); in [9] it was 0.25 µg/mL (≈ 0.354 µM); in experiment [10] it was 0.062 µg/mL (≈ 0.0879 µM); in experiment [11] it was 0.625 µg/mL (≈ 0.886 µM); in experiment [12] it was over 100 µg/mL. Also, in experiment [13], the MIC80 is over 100 µg/mL.
For `O=[N+]([O-])c1ccc2c(ccn2CCCN2CCN(CC(O)(Cn3cncn3)c3ccc(F)cc3F)CC2)c1` (configuration not stated), the MIC80 in experiment [1] was determined as 0.031 µg/mL (≈ 0.059 µM); in experiment [2], 1.25 µg/mL (≈ 2.38 µM); in [3], 0.031 µg/mL (≈ 0.059 µM); in [4] it was 1.25 µg/mL (≈ 2.38 µM); in [5], 0.312 µg/mL (≈ 0.594 µM); in experiment [6] it was 0.031 µg/mL (≈ 0.059 µM). Moreover, the MIC80 in experiment [7] was 0.625 µg/mL (≈ 1.19 µM); in [8], 0.125 µg/mL (≈ 0.238 µM); in experiment [9], 0.062 µg/mL (≈ 0.118 µM); in experiment [10], 0.031 µg/mL (≈ 0.059 µM); in experiment [11] it was 0.625 µg/mL (≈ 1.19 µM); in experiment [12], 0.062 µg/mL (≈ 0.118 µM). The MIC80 in experiment [13] was 0.062 µg/mL (≈ 0.118 µM).
Consider `N#C/C(=C1/SC[C@@H](c2ccc(Cl)cc2Cl)S1)n1ccnc1`, for which, in experiment [14], the outcome was inactive. Further, the outcome in experiment [15] was Active.
For `OC(CN1CCN(CCCCn2ccc3cc(Br)ccc32)CC1)(Cn1cncn1)c1ccc(F)cc1F` (configuration not stated), the MIC80 in experiment [1] was 0.125 µg/mL (≈ 0.218 µM); in experiment [2], 2.5 µg/mL (≈ 4.36 µM); in experiment [3] it was 0.062 µg/mL (≈ 0.108 µM); in experiment [4] it was 1.25 µg/mL (≈ 2.18 µM); in [5], 0.312 µg/mL (≈ 0.544 µM); in experiment [6], 0.062 µg/mL (≈ 0.108 µM). Besides, the MIC80 was 1.25 µg/mL (≈ 2.18 µM) in experiment [7]; 0.125 µg/mL (≈ 0.218 µM) in experiment [8]; 0.062 µg/mL (≈ 0.108 µM) in [9]; 0.031 µg/mL (≈ 0.0541 µM) in experiment [10]; 0.312 µg/mL (≈ 0.544 µM) in experiment [11]; 0.25 µg/mL (≈ 0.436 µM) in experiment [12]. Also, the MIC80 in [13] came out at 0.062 µg/mL (≈ 0.108 µM).
In the case of `Cc1ccc2c(ccn2CCCN2CCN(CC(O)(Cn3cncn3)c3ccc(F)cc3F)CC2)c1` (configuration not stated), the MIC80 in experiment [1] was 0.125 µg/mL (≈ 0.253 µM); in experiment [2] it was 5 µg/mL (≈ 10.1 µM); in experiment [3], 0.062 µg/mL (≈ 0.125 µM); in experiment [4], 5 µg/mL (≈ 10.1 µM); in [5], 0.625 µg/mL (≈ 1.26 µM); in experiment [6] it was 0.062 µg/mL (≈ 0.125 µM). Further, the MIC80 was found to be 2.5 µg/mL (≈ 5.05 µM) in experiment [7]; 0.125 µg/mL (≈ 0.253 µM) in experiment [8]; 0.125 µg/mL (≈ 0.253 µM) in [9]; 0.062 µg/mL (≈ 0.125 µM) in experiment [10]; 0.625 µg/mL (≈ 1.26 µM) in experiment [11]; 0.25 µg/mL (≈ 0.505 µM) in experiment [12]. Further, the MIC80 in [13] is 0.062 µg/mL (≈ 0.125 µM).

The values are drawn from ChEMBL document CHEMBL5338795, “Novel Triazoles with Potent and Broad-Spectrum Antifungal Activity In Vitro and In Vivo” (J Med Chem, 2023).
